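Tested at 5 concentrations; 48 h exposure; 96-well plates; endpoints linearly interpolated, else capped at highest concentration. At the GI50, growth is halved. At the TGI there is no net growth.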
Columns and labels:
Assay in all cases: DTP human tumour cell line panel, 48 h; in the data active = GI50 below about 0.43 µM; inactive = the rest
[1] = test system: 786-0 renal
[2] = test system: A549 NSCLC
[3] = test system: ACHN renal
[4] = test system: CCRF-CEM leukemia
[5] = test system: COLO 205 colon
[6] = test system: DLD-1 colon
[7] = test system: DMS 114 small cell lung
[8] = test system: DMS 273 small cell lung
[9] = test system: EKVX NSCLC
[10] = test system: HCC-2998 colon
[11] = test system: HCT-116 colon
[12] = test system: HCT-15 colon
[13] = test system: HL-60(TB) leukemia
[14] = test system: HOP-62 NSCLC
[15] = test system: HT29 colon
[16] = test system: IGROV1 ovarian
[17] = test system: K-562 leukemia
[18] = test system: KM12 colon
[19] = test system: KM20L2 colon
[20] = test system: LOX IMVI melanoma
[21] = test system: LXFL 529 NSCLC
[22] = test system: M14 melanoma
[23] = test system: M19-MEL melanoma
[24] = test system: MALME-3M melanoma
[25] = test system: MOLT-4 leukemia
[26] = test system: NCI-H226 lung
[27] = test system: NCI-H23 lung
[28] = test system: NCI-H460 lung
[29] = test system: NCI-H522 lung
[30] = test system: OVCAR-3 ovarian
[31] = test system: OVCAR-8 ovarian
[32] = test system: RPMI-8226 leukemia
[33] = test system: SF-268 CNS
[34] = test system: SF-295 CNS
[35] = test system: SF-539 CNS
[36] = test system: SK-MEL-28 melanoma
[37] = test system: SK-OV-3 ovarian
[38] = test system: SN12C renal
[39] = test system: SNB-19 CNS
[40] = test system: SNB-75 CNS
[41] = test system: SNB-78 CNS
[42] = test system: SR leukemia
[43] = test system: SW-620 colon
[44] = test system: TK-10 renal
[45] = test system: U251 CNS
[46] = test system: UACC-257 melanoma
[47] = test system: UACC-62 melanoma
[48] = test system: UO-31 renal
[49] = test system: A498 renal
[50] = test system: CAKI-1 renal
[51] = test system: HOP-18 NSCLC
[52] = test system: HOP-92 NSCLC
[53] = test system: RXF 393 renal
[54] = test system: SK-MEL-5 melanoma
[55] = test system: BT-549 breast
[56] = test system: DU-145 prostate
[57] = test system: HS 578T breast
[58] = test system: MCF7 breast
[59] = test system: MDA-MB-231 breast
[60] = test system: MDA-MB-435
[61] = test system: MDA-N
[62] = test system: NCI/ADR-RES ovarian
[63] = test system: OVCAR-4 ovarian
[64] = test system: OVCAR-5 ovarian
[65] = test system: PC-3 prostate
[66] = test system: SK-MEL-2 melanoma
[67] = test system: T-47D breast

COc1cc(C=O)cc(O)c1O
> 100 µM: TGI [1] | TGI [2] | TGI [3] | TGI [4] | TGI [5] | TGI [6] | TGI [7] | TGI [8] | TGI [9] | TGI [10] | TGI [11] | TGI [12] | TGI [13] | TGI [14] | TGI [15] | TGI [16] | TGI [17] | TGI [18] | TGI [19] | TGI [20] | TGI [21] | TGI [22] | TGI [23] | TGI [24] | TGI [25] | TGI [26] | TGI [27] | TGI [28] | TGI [29] | TGI [30] | TGI [31] | TGI [32] | TGI [33] | TGI [34] | TGI [35] | TGI [36] | TGI [37] | TGI [38] | TGI [39] | TGI [40] | TGI [41] | TGI [42] | TGI [43] | TGI [44] | TGI [45] | TGI [46] | TGI [47] | TGI [48]

C1C[OH+]CC[OH+]CCNCC[OH+]CC[OH+]CCN1.Cl.[Cl-].[Pt+4]
inactive: GI50 [1] > 100 µM | GI50 [49] > 100 µM | GI50 [2] > 100 µM | GI50 [3] > 100 µM | GI50 [50] > 100 µM | GI50 [4] > 100 µM | GI50 [5] > 100 µM | GI50 [6] > 100 µM | GI50 [8] > 100 µM | GI50 [9] > 100 µM | GI50 [11] > 100 µM | GI50 [12] > 100 µM | GI50 [13] > 100 µM | GI50 [51] > 100 µM | GI50 [52] > 100 µM | GI50 [15] > 100 µM | GI50 [16] > 100 µM | GI50 [17] > 100 µM | GI50 [19] > 100 µM | GI50 [20] > 100 µM | GI50 [21] > 100 µM | GI50 [22] > 100 µM | GI50 [25] > 100 µM | GI50 [27] 5.27 µM | GI50 [28] > 100 µM | GI50 [29] 2.27 µM | GI50 [31] > 100 µM | GI50 [32] > 100 µM | GI50 [53] 1.66 µM | GI50 [33] > 100 µM | GI50 [34] > 100 µM | GI50 [35] > 100 µM | GI50 [36] > 100 µM | GI50 [54] > 100 µM | GI50 [37] > 100 µM | GI50 [38] > 100 µM | GI50 [39] > 100 µM | GI50 [43] > 100 µM | GI50 [44] > 100 µM | GI50 [45] > 100 µM | GI50 [47] > 100 µM | GI50 [48] > 100 µM
4.13 µM: TGI [53]
25 µM: TGI [27]
> 100 µM: TGI [1] | TGI [49] | TGI [2] | TGI [3] | TGI [50] | TGI [4] | TGI [5] | TGI [6] | TGI [8] | TGI [9] | TGI [11] | TGI [12] | TGI [13] | TGI [51] | TGI [52] | TGI [15] | TGI [16] | TGI [17] | TGI [19] | TGI [20] | TGI [21] | TGI [22] | TGI [25] | TGI [28] | TGI [31] | TGI [32] | TGI [33] | TGI [34] | TGI [35] | TGI [36] | TGI [54] | TGI [37] | TGI [38] | TGI [39] | TGI [43] | TGI [44] | TGI [45] | TGI [47] | TGI [48]
6.47 µM: TGI [29]

COc1cccc(/C=C\c2ccc(O)cc2)c1
2.92 µM: TGI [13]
> 89.2 µM: TGI [3]
> 51.7 µM: TGI [54]
33.3 µM: TGI [18]
> 88.8 µM: TGI [26]
39.6 µM: TGI [27]
53.1 µM: TGI [35]
58.4 µM: TGI [55]
41.2 µM: TGI [20]
> 78.8 µM: TGI [53]
> 80.9 µM: TGI [2]
> 57.5 µM: TGI [45]
> 96.7 µM: TGI [33]
56.6 µM: TGI [56]
> 50.4 µM: TGI [17]
> 84.2 µM: TGI [67]
31.7 µM: TGI [62]
56.2 µM: TGI [31]
> 67.3 µM: TGI [28]
74 µM: TGI [11]
1.22 µM: TGI [4]
64.8 µM: TGI [52]
> 84.1 µM: TGI [50]
33.7 µM: TGI [48]
53.7 µM: TGI [15]
20.1 µM: TGI [42]
38.7 µM: TGI [25]
70.2 µM: TGI [40]
> 76.1 µM: TGI [12]
69.8 µM: TGI [49]
> 62.8 µM: TGI [10]
> 82.7 µM: TGI [30]
> 91.2 µM: TGI [60]
56.8 µM: TGI [29]
75 µM: TGI [57]
> 68.3 µM: TGI [38]
49.2 µM: TGI [1]
99.5 µM: TGI [65]
> 100 µM: TGI [5] | TGI [9] | TGI [14] | TGI [16] | TGI [58] | TGI [59] | TGI [61] | TGI [63] | TGI [64] | TGI [32] | TGI [34] | TGI [36] | TGI [37] | TGI [39] | TGI [44] | TGI [46] | TGI [47]
65.9 µM: TGI [24]
68.8 µM: TGI [66]
63.5 µM: TGI [22]
> 90.7 µM: TGI [43]

Source: PubChem BioAssay (NCI)
